Measurements published in patent US20240287614A1, “RECIPROCAL MICRORNA-MRNA PAIRINGS AS BIOMARKERS AND THERAPEUTIC TARGETS IN CANCER” (UNIVERSITY OF MARYLAND, EASTERN SHORE, priority 2023, published 2024).

Assays:
Assay type in all cases: cell-based, human
MTOR = assay: Western blot of mTOR in transfected prostate cancer cells; settings: mimic transfection vs NS transfection
Procedure: […] RC77 T/E, a primary prostate cancer cell line derived from a patient, was kindly provided by Dr. Johng Rhim at Center for Prostate Disease Research (CPDR) in Rockville, MD. LNCaP and PC-3 were served as prostate cancer cell line models, and RC77 T/E and MDA PCa 2b were served as prostate cancer cell models in the study. The cells were cultured in specific cell culture media, LNCaP was cultured in RPMI with 10% fetal bovine serum (FBS), PC-3 was cultured in DMEM with 10% FBS, MDA PCa 2b were cultured in BRFF-HPC1 with 20% FBS and RC77 T/E was cultured in Keratinocyte SFM with Human Recombinant Epidermal Growth Factor (EGF 1-53) and Bovine Pituitary Extract (BPE). Cells were maintained at 37° C. in a 5% CO2 incubator. LNCaP, PC-3 and MDA PCa 2b cells were seeded at density 3×10^4 cells/well in 6-well plates. RC77 T/E cells were seeded at density 5×10^4 cells/well in 6-well plates. […]
For measurement of the gene expression at protein level, proteins were extracted using M-PER Mammalian Protein Extraction Reagent (Thermo Fisher Scientific) with protease and phosphatase inhibitor cocktail (Thermo Fisher Scientific). Protein concentrations were quantified using BCA assay kit (Thermo Fisher Scientific). […]

mTOR and pmTOR = assay: Western blot of mTOR and pmTOR in cytoplasmic and nuclear fractions of colon, breast and lung cancer cells; settings: breast, lung cancer cells
From the text: (§1) The human cell lines used in the study included: 22Rv1, LNCaP, PC-3, RC77 T/E and MDA PCa 2b (prostate cancer cell lines), MDA MB 231 and MCF-7 (breast cancer cell lines), HT-29 and SW620 (colon cancer cell lines), A549 and H1299 (lung cancer cell lines). RWPE-1, HMEC, FHC, and BEAS-2B were used as normal control cell lines for prostate, breast, colon, and lung, respectively. Note that 22Rv1 is a castration-resistant […] prostate cancer cell line, while LNCaP and PC-3 were derived from lymph node and bone metastasis of […] prostate cancer patients, respectively. RC77 T/E was derived from a primary prostate cancer patient, and MDA PCa 2b was derived from bone metastasis of an prostate cancer patient. The cell lines described were used as in vitro cell models to evaluate the functional roles of miR-99b-5p/MTOR pairing in the […] prostate cancer, African American prostate cancer and solid tumors in general. The cells were grown in specific cell culture media described as follows: 22Rv1, LNCaP, MCF-7 and H1299 were cultured in RPMI-1640 with 10% fetal bovine serum (FBS), PC-3, A549 and FHC were cultured in DMEM with 10% FBS, RC77 T/E was cultured in Keratinocyte SFM with human recombinant epidermal growth factor (EGF) and bovine pituitary extract (BPE), MDA PCa 2b were cultured in BRFF-HPC1 with 20% FBS, HT-29 was cultured in McCory's with 10% FBS, SW620 and MDA MB 231 were cultured in L-15 with 10% FBS, HMEC was cultured in mammary epithelial cell basal medium with supplements, and BEAS-2B was cultured in BEBM base medium with BEBM supplement kit. Cells were maintained at 37° C. in a 5% CO2 incubator.
(§2) The 22Rv1, LNCaP, PC-3, MDA PCa 2b, MCF7, H1299, A549, HT-29, SW620, MDA MB-231, HMEC and BEAS-2B cells were seeded at a density of 3×10^5 cells/well in 6-well plates. RC77 T/E cells were seeded at a density of 5×10^5 cells/well in 6-well plates. The cells were grown for 24 h and then transfected with nonsense/scrambled RNA (NS) and miR-99b-5p mimic (Ambion) using DharmaFECT4 transfection reagent (Dharmacon). After 24 h, fresh media were applied to replace the transfection reagent-containing media, then the cells were incubated for an additional 24 h.
(§3) The total proteins were extracted using M-PER extraction reagent with protease and phosphatase inhibitor cocktail (Thermo Fisher Scientific) according to manufacturer's protocol. […] Equal amounts of proteins were used based on the quantification using BCA assay kit (Thermo Fisher Scientific), and the samples were separated by electrophoresis using NuPAGE 4-12% or 8% Bis-Tris gels (Invitrogen). […] The results were analyzed with SuperSignal ECL substrates (Thermo Fisher Scientific) and a ChemiDoc XRS system (Bio-Rad). […]

AR = assay: Western blot of AR in total, cytoplasmic and nuclear protein fractions
From the text: as §1, §2, §3

## miR-99b-5p mimic: miRNA mimic of miR-99b-5p (SEQ ID NO: 2, CACCCGUAGAACCGACCUUGCG), purchased from Ambion (listed as RNA, chemistry not given here; listed as Homo sapiens)
MTOR
  mTOR level (Western blot): downregulated
mTOR and pmTOR; miR-99b-5p vs NS transfected
  nuclear mTOR expression (Western blot): significant decrease
  nuclear pmTOR expression (Western blot): significant decrease
  total mTOR (combined cytoplasmic and nuclear mTOR, Western blot): generalized reduction
mTOR and pmTOR; upon miR-99b-5p transfection
  cytoplasmic mTOR (Western blot): slight to no decrease
AR; 22Rv1 and MDA PCa 2b cells
  cytoplasmic AR (Western blot): slight to moderate decrease
AR; MCF-7, 22Rv1, MDA PCa 2b, mimic vs NS
  AR expression levels, total lysates (Western blot): significantly reduced
AR; MCF-7, 22Rv1, and MDA PCa 2b cells
  nuclear AR protein levels (Western blot): significantly decreased
AR; MCF-7 cells
  cytoplasmic AR (Western blot): no change
